Assay results taken from ChEMBL document CHEMBL4699563, “Synthesis and evaluation of etoposide and podophyllotoxin analogs against topoisomerase IIα and HCT-116 cells” (2020).
The source made the active and inactive calls. The calls are words filed in the database; no cut-off is given here.

Legend:
[1] = system: A549; assay: Cytotoxicity against human A549 cells assessed as reduction in cell viability after 72 hrs by Alamar blue assay; assay type: functional; settings: read-out: LD50 (the source's name)
[2] = biological target: DNA topoisomerase 2-alpha (Homo sapiens) (UniProt P11388); assay: Inhibition of wild type human topoisomerase-2alpha expressed in Saccharomyces cerevisiae JEL1deltatop1 assessed as inhibition of supercoiled DNA relaxation at 100 to 200 uM using negatively supercoiled pBRDNA as substrate incubated for 15 mins in presence of ATP by gel electrophoresis; settings: dose microM 100-200, time 15.0 min
DNA topoisomerase 2-alpha (Homo sapiens), sequence (P11388 whole entry): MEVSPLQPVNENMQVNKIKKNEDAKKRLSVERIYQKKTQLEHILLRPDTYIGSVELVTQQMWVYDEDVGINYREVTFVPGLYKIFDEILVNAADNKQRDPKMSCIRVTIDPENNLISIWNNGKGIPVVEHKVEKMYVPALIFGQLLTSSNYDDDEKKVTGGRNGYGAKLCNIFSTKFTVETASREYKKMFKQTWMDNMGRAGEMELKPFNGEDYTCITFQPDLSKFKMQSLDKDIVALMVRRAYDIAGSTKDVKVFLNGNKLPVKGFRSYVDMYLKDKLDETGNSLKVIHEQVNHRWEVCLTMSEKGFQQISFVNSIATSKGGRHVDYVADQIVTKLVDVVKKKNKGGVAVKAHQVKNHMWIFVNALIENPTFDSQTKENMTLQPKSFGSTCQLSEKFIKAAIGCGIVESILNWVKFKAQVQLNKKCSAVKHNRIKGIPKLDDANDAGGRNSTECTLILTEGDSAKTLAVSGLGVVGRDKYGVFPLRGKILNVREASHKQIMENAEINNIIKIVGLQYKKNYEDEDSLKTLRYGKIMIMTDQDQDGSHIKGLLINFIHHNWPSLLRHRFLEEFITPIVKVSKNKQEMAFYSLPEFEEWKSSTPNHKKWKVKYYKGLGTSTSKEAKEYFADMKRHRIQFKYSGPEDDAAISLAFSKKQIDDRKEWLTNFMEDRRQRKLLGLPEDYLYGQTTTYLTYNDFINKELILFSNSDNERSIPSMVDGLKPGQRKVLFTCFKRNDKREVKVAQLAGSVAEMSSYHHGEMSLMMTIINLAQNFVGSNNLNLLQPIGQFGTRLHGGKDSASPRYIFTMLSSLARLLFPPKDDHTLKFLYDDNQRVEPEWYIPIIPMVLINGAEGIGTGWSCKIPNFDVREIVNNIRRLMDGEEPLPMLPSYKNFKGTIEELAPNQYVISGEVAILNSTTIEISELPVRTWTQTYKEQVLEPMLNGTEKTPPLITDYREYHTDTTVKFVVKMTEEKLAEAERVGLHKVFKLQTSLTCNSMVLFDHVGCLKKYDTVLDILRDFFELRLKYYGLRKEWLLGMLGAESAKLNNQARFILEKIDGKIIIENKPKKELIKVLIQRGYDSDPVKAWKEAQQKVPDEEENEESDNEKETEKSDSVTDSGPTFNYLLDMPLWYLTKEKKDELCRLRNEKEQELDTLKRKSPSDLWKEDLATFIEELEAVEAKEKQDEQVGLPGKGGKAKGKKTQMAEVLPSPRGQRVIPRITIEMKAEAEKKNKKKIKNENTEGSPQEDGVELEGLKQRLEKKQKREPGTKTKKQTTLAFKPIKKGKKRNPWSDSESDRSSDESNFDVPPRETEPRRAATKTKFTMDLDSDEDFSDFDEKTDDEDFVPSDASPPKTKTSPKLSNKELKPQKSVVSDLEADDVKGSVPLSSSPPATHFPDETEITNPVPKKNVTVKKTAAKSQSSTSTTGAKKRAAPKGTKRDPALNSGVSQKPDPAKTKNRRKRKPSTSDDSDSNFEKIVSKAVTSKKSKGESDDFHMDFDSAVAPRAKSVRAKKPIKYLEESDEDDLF

[3] = system: HCT-116; assay: Cytotoxicity against human HCT-116 cells assessed as reduction in cell viability after 72 hrs by Alamar blue assay; assay type: functional; settings: read-out: LD50 (the source's name)
[4] = biological target: DNA topoisomerase 2-alpha (Homo sapiens) (UniProt P11388); assay: Inhibition of wild type human topoisomerase-2alpha expressed in Saccharomyces cerevisiae JEL1deltatop1 assessed as induction of supercoiled DNA cleavage at 200 uM using negatively supercoiled pBRDNA as substrate incubated for 30 mins by gel electrophoresis
[5] = system: HCT-116; assay: Cell cycle arrest in human HCT-116 cells assessed as decrease in cell population at S phase after 48 hrs by propidium iodide staining based flow cytometry analysis; assay type: functional
[6] = biological target: DNA topoisomerase 2-alpha (Homo sapiens) (UniProt P11388); assay: Inhibition of wild type human topoisomerase-2alpha expressed in Saccharomyces cerevisiae JEL1deltatop1 assessed as induction of supercoiled DNA cleavage using negatively supercoiled pBRDNA as substrate incubated for 30 mins by gel electrophoresis; settings: dose microM 100-200, time 30.0 min
[7] = system: HCT-116; assay: Cell cycle arrest in human HCT-116 cells assessed as accumulation at sub-G1 phase after 48 hrs by propidium iodide staining based flow cytometry analysis; assay type: functional
[8] = biological target: DNA topoisomerase 2-alpha (Homo sapiens) (UniProt P11388); assay: Inhibition of wild type human topoisomerase-2alpha expressed in Saccharomyces cerevisiae JEL1deltatop1 assessed as induction of supercoiled DNA cleavage at 100 to 200 uM using negatively supercoiled pBRDNA as substrate incubated for 30 mins by gel electrophoresis; settings: dose microM 100-200, time 30.0 min
[9] = system: A549; assay: Antiproliferative activity against human A549 cells assessed as inhibition of cell proliferation after 48 hrs by MTT assay; assay type: functional; settings: read-out: LD50 (the source's name)

COc1cc([C@@H]2c3cc4c(cc3[C@@H](O)[C@H]3COC(=O)[C@H]23)OCO4)c(Cl)c(OC)c1O
CC50 [1]: 35 µM | inhibition [2]: Active | CC50 [3]: 33 µM | Activity [4]: Active

COc1cc([C@@H]2c3cc4c(cc3[C@H](O)[C@H]3COC(=O)[C@H]23)OCO4)c(Br)c(OC)c1OC
inhibition [2]: inactive

COc1cc([C@@H]2c3cc4c(cc3[C@@H](O[C@@H]3O[C@@H]5CO[C@@H](C)O[C@H]5[C@H](O)[C@H]3O)[C@H]3COC(=O)[C@H]23)OCO4)c(Cl)c(OC)c1O
Activity [5]: Active | Activity [6]: Active | Activity [7]: Active | inhibition [2]: Active | CC50 [3]: 120 µM | Activity [8]: Active

COc1cc([C@@H]2c3cc4c(cc3[C@H](O)[C@H]3COC(=O)[C@H]23)OCO4)cc(OC)c1OC
inhibition [2]: inactive

COc1c(Cl)c([C@@H]2c3cc4c(cc3[C@H](O)[C@H]3COC(=O)[C@H]23)OCO4)c(Cl)c(OC)c1OC
Activity [5]: Active | CC50 [1]: 17 µM | Activity [7]: Active | inhibition [2]: Active | CC50 [3]: 20 µM | Activity [8]: Active

COc1cc([C@@H]2c3cc4c(cc3[C@H](O)[C@H]3COC(=O)[C@H]23)OCO4)c(Cl)c(OC)c1OC
inhibition [2]: inactive

COc1cc([C@@H]2c3cc4c(cc3[C@@H](O[C@@H]3O[C@@H]5CO[C@@H](C)O[C@H]5[C@H](O)[C@H]3O)[C@H]3COC(=O)[C@H]23)OCO4)cc(OC)c1O [ETOPOSIDE]
CC50 [9]: 11.8 µM | CC50 [3]: 1.6 µM
